Source: US20070135485A1, “Novel mch receptor antagonists” (priority 2003, published 2007)

Legend:
[1] = molecular target: T1, human MCHR1 (Homo sapiens, UniProt Q99705); test: competitive 125I-MCH binding assay with clone 43 membranes (SPA); settings: 125I-MCH (100 pM) displacement, Ki from IC50 by Cheng-Prusoff, tested in duplicate
T1 construct: The full-length cDNA for human MCHR1 was cloned; expressed in transfected cells; host or cells: AV12 cells previously transfected with the promiscuous G protein G(alpha)15; membranes
T1 sequence (Q99705 whole entry): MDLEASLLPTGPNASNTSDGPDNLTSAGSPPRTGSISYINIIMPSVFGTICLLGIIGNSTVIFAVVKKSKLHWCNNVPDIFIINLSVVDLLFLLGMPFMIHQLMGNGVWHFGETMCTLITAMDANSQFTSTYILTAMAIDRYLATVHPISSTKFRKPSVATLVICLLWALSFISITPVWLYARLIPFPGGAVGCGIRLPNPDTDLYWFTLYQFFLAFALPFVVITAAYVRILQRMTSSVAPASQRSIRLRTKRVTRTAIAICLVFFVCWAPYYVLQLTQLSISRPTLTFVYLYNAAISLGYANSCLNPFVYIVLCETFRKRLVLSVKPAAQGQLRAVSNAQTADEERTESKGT
Experimental: (§1) The full-length cDNA for human MCHR1 was cloned from a human adult brain cDNA library (Edge Biosystems, Cat. 38356) by standard polymerase chain reaction (PCR) methodology employing the following primers: sense, 5′-GCCACCATGGACCT GGAAGCCTCGCTGC-3′; anti-sense, 5′-[…]-3′. The PCR reaction was performed in a final volume of 50 μl containing 5 μl of a 10× stock solution of PCR buffer, 1 μl of 10 mM dNTP mixture (200 μM final), 2 μl of 50 mM Mg(SO4) (2 mM final), 0.5 μl of 20 μM solutions of each primer (0.2 μM final), 5 μl of template cDNA containing 0.5 ng DNA, 0.5 μl of Platinum Taq High Fidelity DNA polymerase (Gibco Life Technologies) and 36 μl of H2O. PCR amplification was performed on a Perkin Elmer 9600 thermocycler. After denaturation for 90 sec at 94° C., the amplification sequence consisting of 94° C. for 25 sec, 55° C. for 25 sec and 72° C. for 2 min was repeated 30 times, followed by a final elongation step at 72° C. for 10 min. The desired PCR product (1.1 Kb) was confirmed by agarose gel electrophoresis and the band was extracted from the gel by Geneclean (Bio101) following the manufacturer's instructions. Following extraction, the cDNA fragment was cloned into pCR2.1-TOPO plasmid (Invitrogen) to confirm the identity and sequence.
(§2) In order to generate cell lines stably expressing MCHR1, the insert was then subcloned into the Xba I and Not I sites of pcDNA(+)-3.1-neomycin (Invitrogen). After purification by Qiagen Maxi-prep kit (QIAGEN, Inc.), the plasmid was transfected by Fugene 6 (Roche Applied Science) into AV12 cells that had been previously transfected with the promiscuous G protein G[…]15. The transfected cells were selected by G418 (800 μg/ml) for. 10-14 days and single colonies were isolated from culture plates. The G418-resistant colonies were further selected for MCHR1 expression by measuring MCH-stimulated Ca^2+ transients with a fluorometric imaging plate reader (FLIPR, Molecular Devices).
Both the ^125I-MCH binding and functional GTPγ^35S binding assays employed membranes isolated from a clone designated as clone 43. Typically, cells from 20 confluent T225 flasks were processed by washing the monolayers in cold phosphate-buffered saline (PBS), scraping the cells into same and re-suspending the cell pellet in 35 ml of 250 mM Sucrose, 50 mM HEPES, pH 7.5, 1 mM MgCl2, 24 μg/ml DNase I, and protease inhibitors (1 Complete® tablet, per 50 ml of buffer prepared, Roche Diagnostics). After incubation on ice for 5 min, cells were disrupted with 20-25 strokes of a Teflon/Glass homogenizer attached to an overhead motorized stirrer, and the homogenate was centrifuged at 40,000 rpm in Beckman Type 70.1 Ti rotor. The pellets were re-suspended in 250 mM Sucrose, 50 mM HEPES, pH 7.5, 1.5 mM CaCl2, 1 mM MgSO4 and protease inhibitors by Teflon/Glass homogenization to achieve a protein concentration of ˜3-5 mg/ml (Pierce BCA assay with Bovine serum albumin as standard). Aliquots were stored at −70° C.
Binding of compounds to MCHR1 was assessed in a competitive binding assay employing ^125I-MCH, compound and clone 43 membranes. Briefly, assays are carried out in 96-well Costar 3632 white opaque plates in a total volume of 200 μl containing 25 mM HEPES, pH 7.5, 10 mM CaCl2, 2 mg/ml bovine serum albumin, 0.5% dimethyl sulfoxide (DMSO), 4 μg of clone 43 membranes, 100 pM ^125I-MCH (NEN), 1.0 mg of wheat germ agglutinin scintillation proximity assay beads (WGA-SPA beads, Amersham) and a graded dose of test compound. Non-specific binding is assessed in the presence of 1 μM unlabeled MCH. Bound ^125I-MCH is determined by placing sealed plates in a Microbeta Trilux (Wallac) and counting after a 5 hr delay.
IC50 values (defined as the concentration of test compound required to reduce specific binding of ^125I-MCH by 50%) are determined by fitting the concentration-response data to a 4-parameter model (max response, min response, Hill coefficient, IC50) using Excel. […]

[2] = molecular target: T1, human MCHR1; test: inhibition of MCH-stimulated GTPγ35S binding to clone 43 membranes (functional antagonism); type: biochemical; settings: 40 nM MCH-stimulated GTPγ35S binding, Kb from IC50 by modified Cheng-Prusoff (Leff and Dougal), tested in duplicate
Experimental: as §1
as §2, with “Devices). […]” for “Devices).”
Functional antagonism of MCH activity is assessed by measuring the ability of test compound to inhibit MCH-stimulated binding of GTPγ^35S to clone 43 membranes. […]

| Structure (SMILES) | Ki [1] [nM] | Kb [2] [nM] | melting point [°C] |
| --- | --- | --- | --- |
| O=C1c2ccc(-c3nnc(CSCCOc4ccccc4)o3)cc2CN1CCN1CCCCC1 | 1070 |  |  |
| O=C1c2cc(-c3nnc(CSCCOc4ccccc4)o3)ccc2CN1CCN1CCCCC1 | 2000 |  |  |
| CN(C)Cc1cc2cc(-c3nnc(CSCCOc4ccccc4)o3)ccc2[nH]1 | 190 |  |  |
| c1ccc(OCCSCc2nnc(-c3ccc4cc(CN5CCCC5)ccc4c3)o2)cc1 | 7.3 | 7 |  |
| CN(C)Cc1c[nH]c2cc(-c3nnc(CSCCOc4ccccc4)o3)ccc12 | 682 |  |  |
| CN(C)Cc1cn(C)c2ccc(-c3nnc(CSCCOc4ccccc4)o3)cc12 | 11100 |  |  |
| CN(C)Cc1cc2cc(-c3nnc(CSCCOc4ccccc4)o3)ccc2[nH]1.O=C(O)C(=O)O [Example 3, dimethyl-{5-[5-(2-phenoxy-ethylsulfanylmethyl)-[1,3,4]oxadiazol-2-yl]-1H-indol-2-ylmethyl}-amine oxalate] |  |  | 147 to 150 |
| CN(C)Cc1cc2ccc(-c3nnc(CSCCOc4ccccc4)o3)cc2[nH]1 [Example 4, dimethyl-{6-[5-(2-phenoxy-ethylsulfanylmethyl)-[1,3,4]oxadiazol-2-yl]-1H-indol-2-ylmethyl}-amine] |  |  | 128 to 130 |
| CN(C)Cc1cc2ccc(-c3nnc(CSCCOc4ccccc4)o3)cc2n1C.O=C(O)C(=O)O [Example 5, dimethyl-{1-methyl-6-[5-(2-phenoxy-ethylsulfanylmethyl)-[1,3,4]oxadiazol-2-yl]-1H-indol-2-ylmethyl}-amine oxalate] |  |  | 125.5 to 129 |
| CN(C)Cc1c[nH]c2ccc(-c3nnc(CSCCOc4ccccc4)o3)cc12.O=C(O)C(=O)O [Example 6, dimethyl-{5-[5-(2-phenoxy-ethylsulfanylmethyl)-[1,3,4]oxadiazol-2-yl]-1H-indol-3-ylmethyl}-amine oxalate] |  |  | 159 to 163 |
| CN(C)Cc1c[nH]c2cc(-c3nnc(CSCCOc4ccccc4)o3)ccc12.O=C(O)/C=C\C(=O)O [Example 7, Dimethyl-{6-[5-(2-phenoxy-ethylsulfanylmethyl)-[1,3,4]oxadiazol-2-yl]-1H-indol-3-ylmethyl}-amine maleate] |  |  | 127 to 129 |
| CN(C)Cc1cn(C)c2ccc(-c3nnc(CSCCOc4ccccc4)o3)cc12.O=C(O)C(=O)O [Example 8, dimethyl-{1-methyl-5-[5-(2-phenoxy-ethylsulfanylmethyl) -[1,3,4]oxadiazol-2-yl]-1H-indol-3-ylmethyl}-amine oxalate] |  |  | 151 to 154 |
| CN(C)Cc1ccc2cc(-c3nnc(CSCCOc4ccccc4)o3)ccc2c1 [Example 11, Dimethyl-{6-[5-(2-phenoxy-ethylsulfanylmethyl)-[1,3,4]oxadiazol-2-yl]-naphthalen-2-ylmethyl}-amine] |  |  | 95 to 96 |
| O=C(O)/C=C\C(=O)O.c1ccc(OCCSCc2nnc(-c3ccc4cc(CN5CCCC5)ccc4c3)o2)cc1 [Example 12, 2-(2-Phenoxy-ethylsulfanylmethyl)-5-(6-pyrrolidin-1-ylmethyl-naphthalen-2-yl)-[1,3,4]oxadiazole maleate] |  |  | 133 to 135 |
| c1ccc(OCCSCc2nnc(-c3ccc4cc(CN5CCCCC5)ccc4c3)o2)cc1 [Example 13, 1 -{6-[5-(2-phenoxy-ethylsulfanylmethyl)-[1,3,4]oxadiazol-2-yl]-naphthalen-2-ylmethyl}-piperidine] |  |  | 93 to 94 |
| CN(C)Cc1cc2ccc(-c3nnc(CSCCOc4ccccc4)o3)cc2o1 [drawing 39] | 372 |  |  |
| CN(C)Cc1cc2ccc(-c3nnc(CSCCOc4ccccc4)o3)cc2o1 [drawing 41] | 383 |  |  |
| CN(C)Cc1ccc2cc(-c3nnc(CSCCOc4ccccc4)o3)ccc2c1 [drawing 44] | 8.2 | 11.8 |  |
| c1ccc(OCCSCc2nnc(-c3ccc4cc(CN5CCCCC5)ccc4c3)o2)cc1 [drawing 47] | 17.6 | 58.4 |  |
| CN(C)Cc1cc2cc(-c3nnc(CSCCOc4ccccc4)o3)ccc2o1 [drawing 50] | 235 |  |  |
| CN(C)Cc1cc2cc(-c3nnc(CSCCOc4ccccc4)o3)ccc2o1 [drawing 52] | 153 |  |  |
| CN(C)Cc1cc2ccc(-c3nnc(CSCCOc4ccccc4)o3)cc2[nH]1 [drawing 54] | 34.6 |  |  |
